According to patent publication US12103965B2, “Diagnostic kit” (Phoenix Pharmaceuticals, Inc., priority 2011, dated 2024):
Where no end group is shown, it is not given here.

Key:
[1] = system: rat pituitary adenoma cells, RC-4B/C; format: binding
Experimental: Also, rat pituitary adenoma cells, RC-4B/C cells, were used in the assay of radioligand binding. For the binding displacement, cells were incubated for 30 min with 50 pM 125I-Y0-Phoenixin-20 (amide SEQ. ID NO: 7) in the absence or presence of increasing concentrations of un-labeled Phoenixin-20 amide (amide SEQ. ID NO: 7) or phoenixin-14 amide (amide SEQ. ID NO: 9). Nonspecific binding was defined as total binding in the presence of 1 μM unlabeled Phoenixin-20 amide (amide SEQ. ID NO: 7) or phoenixin-14 amide (amide SEQ. ID NO: 9). After termination of the binding reaction by washing the cells with 1 ml of cold PBS, cells were solubilized with 0.5 ml of 1% SDS, and radioactivity was detected in a gamma counter.

[2] = system: rat pituitary adenoma cells, RC-4B/C; assay: cAMP production in pituitary cells (cAMP Biotrak enzyme immunoassay); format: cell-based; conditions: 100 nM peptide, 30 min, in presence of IBMX; PBS-control 100% = 4.94±0.5 pmol/mg protein
Experimental: Rat pituitary adenoma cells, RC-4B/C (CRL-1903; ATCC, Manassas, VA, USA), were cultured in Dulbecco's Modified Eagle's Medium and Minimum Essential Alpha Medium (Invitrogen, CA, USA) supplemented with 0.01 mM non-essential amino acids, 15 mM HEPES, 2.5 ng/ml epidermal growth factor, and dialyzed, heat-inactivated fetal bovine serum (“FBS”) at 37° C. in a humidified cell incubator containing 5% carbon dioxide (“CO2”). After 2 days of cell cultured in 24 wells plate, cell were equilibrated for 2 hours in serum-free medium and then incubated with 0.1 mM 3-isobutyl-1-methylxanthine (“IBMX”) in serum-free medium 30 min again. Then, cells were challenged with either 100 nM of […]-NH2 (SEQ. ID NO: 7), DVQPPGLKVWSDPFG (SEQ. ID NO: 3), DVQPPGLKVWSDPF-NH2 (SEQ. ID NO: 9), or a PBS-control in the presence of IBMX and incubated for 30 min. After incubation, supernatant medium was then aspirated and the cells in each well were extracted by 70% cold ethanol. Alcohol was evaporated in a vacuum concentrator (PN: AES 2000, Savant, Hicksvile, NY, USA) Thereafter, cAMP content was determined by using a cAMP Biotrak enzyme immunoassay kit (GE healthcare-Amersham, Piscataway, NJ, USA) in accordance with the protocol of the manufacturer.

[3] = system: antibodies raised to AGIVQEDVQPPGLKVWSDPF-NH2 (SEQ. ID NO: 7); assay: RIA/EIA cross-reactivity of anti-phoenixin antibodies; format: binding; conditions: RIA or EIA
Experimental: Homogenates were prepared from heart tissues of adult rats. The supernatant of the rat heart homogenates were passed through C18 column extraction cartridges and P6 gel filtration to further purify native peptide candidates. The immunoreactive fractions as determined by conventional enzyme immunoassay (“EIA”) in which labeled chemically synthesized peptides as described above compete with unlabeled native phoenixin peptide for a limited quantity of the anti-phoenixin peptide antibodies, produced as above described. The label can be biotin complex which by reaction with streptavidin horseradish peroxidase and sequent reaction of the horseradish peroxidase with colormetric or fluorescence substrates can be quantitated. […]
Homogenates of porcine or bovine or rat tissue of heart, lung, kidney, spinal cord, small intestine, liver, pancreas, hypothalamus, spleen, and thymus were prepared as above-described and the resulting fractions were processed by the above-described peptides extraction procedure and were assayed by radio-immunoassay (“[…]”) or Enzyme Immunoassay (EIA) using antibodies raised to […]-NH2 (SEQ. ID NO: 7). […] Protein concentrations were determined by bicinchoninic acid (“BCA”) protein assay in accordance to the protocol of the manufacturer Thermo Scientific, Rockford, Illinois using bovine serum albumin (“BSA”) as a standard. […]

Substance | IC50 [1] [nM] | increase of intracellular cAMP production over the PBS control [2] | cross-reactive with antibodies raised to SEQ. ID NO: 7 [3]
AGIVQEDVQPPGLKVWSDPF-NH2 [SEQ. ID NO: 7, phoenixin (1-20) amide] | 21.5 | greater than two fold and even three-fold | –
DVQPPGLKVWSDPF-NH2 [SEQ. ID NO: 9, phoenixin (7-20) amide] | 17.9 | greater than two fold and even three-fold | 100%
phoenixin (7-21) (DVQPPGLKVWSDPFG; listed as Homo sapiens) [SEQ. ID NO: 3] | – | greater than two fold and even three-fold | less than 0.5%
